{"source": "ChEMBL document CHEMBL5678800", "about": "(Mol Cancer Ther, 2009)", "key": {"[1]": {"biological_target": "Protein kinase C alpha type (Homo sapiens, UniProt P17252)", "assay": "Inhibition of recombinant PKCalpha (unknown origin) incubated for 60 mins in presence of ATP by electrophoretic caliper fluorescence analysis"}, "[2]": {"biological_target": "T1, Protein kinase C zeta type (Homo sapiens, UniProt Q05513)", "T1 sequence (Q05513 whole entry)": "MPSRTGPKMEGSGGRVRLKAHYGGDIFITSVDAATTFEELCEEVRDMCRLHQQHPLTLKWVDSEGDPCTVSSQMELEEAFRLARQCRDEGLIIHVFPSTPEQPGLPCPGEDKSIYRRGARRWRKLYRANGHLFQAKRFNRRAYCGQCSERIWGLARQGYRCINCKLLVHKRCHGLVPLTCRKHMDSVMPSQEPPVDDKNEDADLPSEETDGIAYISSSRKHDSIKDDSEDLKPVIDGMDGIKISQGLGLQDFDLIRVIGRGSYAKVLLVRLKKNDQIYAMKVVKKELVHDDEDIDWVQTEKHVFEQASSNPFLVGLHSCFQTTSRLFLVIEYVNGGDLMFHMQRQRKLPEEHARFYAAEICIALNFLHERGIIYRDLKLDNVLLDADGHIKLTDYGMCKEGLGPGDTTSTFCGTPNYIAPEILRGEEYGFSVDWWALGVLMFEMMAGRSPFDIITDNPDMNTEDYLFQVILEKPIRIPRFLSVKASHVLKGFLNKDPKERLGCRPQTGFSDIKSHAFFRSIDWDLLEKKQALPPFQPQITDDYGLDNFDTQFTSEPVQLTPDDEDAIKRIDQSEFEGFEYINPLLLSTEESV", "assay": "Inhibition of recombinant PKCzeta (unknown origin) incubated for 60 mins in presence of ATP by electrophoretic caliper fluorescence analysis"}, "GTL 16 cell line": {"system": "GTL 16 cell line", "assay": "Antiproliferative activity against human GTL 16 cell line assessed as inhibition of cell viability incubated for 72 hrs by 3H-thymidine incorporation assay", "assay_type": "functional, cell-based"}, "Rh41 [3]": {"system": "Rh41", "assay": "Induction of cell cycle arrest in human Rh41 cells assessed as accumulation of cells at G2/M phase by measuring >4N DNA content at 10x IC50 incubated for 48 hrs by propidium iodide staining based flow cytometry analysis", "assay_type": "functional"}, "Rh41 [4]": {"system": "Rh41", "assay": "Induction of cell cycle arrest in human Rh41 cells assessed as accumulation of cells at G2/M phase at 10x IC50 incubated for 24 hrs by propidium iodide staining based flow cytometry analysis relative to control", "assay_type": "functional"}, "Rh41 [5]": {"system": "Rh41", "assay": "Induction of cell cycle arrest in human Rh41 cells assessed as accumulation of cells at G2/M phase at 10x IC50 incubated for 48 hrs by propidium iodide staining based flow cytometry analysis relative to control", "assay_type": "functional"}, "IGF-1R-Sal": {"system": "IGF-1R-Sal", "assay": "In vivo inhibition of IGF-1R phosphorylation in mouse IGF-1R-Sal cells xenografted in nude mouse at 12.5 mg/kg, po administered for 30 mins by Western blotting analysis", "assay_type": "functional, organism-based"}, "Mus musculus [6]": {"system": "Mus musculus", "assay": "Anti-diabetic activity against nude mouse xenografted with mouse IGF-1R-Sal cells assessed as increased serum glucose level at 12.5 mg/kg, po administered for 2 hrs by oral glucose tolerance test (Rvb= 97.40 +/- 5.0 mg/dl)", "assay_type": "functional"}, "Mus musculus [7]": {"system": "Mus musculus", "assay": "Anti-diabetic activity against nude mouse xenografted with mouse IGF-1R-Sal cells assessed as insulin level at 3.125 mg/kg, po administered for 2 hrs by ELISA analysis (Rvb= 0.39 +/- […])", "assay_type": "functional"}, "Mus musculus [8]": {"system": "Mus musculus", "assay": "Anti-diabetic activity against nude mouse xenografted with mouse IGF-1R-Sal cells assessed as insulin level at 12.5 mg/kg, po administered for 2 hrs by ELISA analysis (Rvb= 0.39 +/- […])", "assay_type": "functional"}, "[9]": {"assay": "Plasma concentration in nude mouse xenografted with mouse IGF-1R-Sal cells at 3.125 mg/kg, po administered for 2 hrs by LC-MS/MS analysis", "assay_type": "ADME, organism-based"}, "[10]": {"assay": "Plasma concentration in nude mouse xenografted with mouse IGF-1R-Sal cells at 12.5 mg/kg, po administered for 2 hrs by LC-MS/MS analysis", "assay_type": "ADME, organism-based"}, "[11]": {"assay": "Antitumor activity against mouse IGF-1R-Sal cells xenografted in nude mouse assessed as tumor growth inhibition at 3.1 to 12.5 mg/kg, po administered for 4 days relative to control", "assay_type": "functional", "details": "dose 3.1-12.5 mg/kg, time 4 day"}, "[12]": {"assay": "Antitumor activity against mouse IGF-1R-Sal cells xenografted in nude mouse assessed as tumor growth inhibition at 6.25 to 150 mg/kg, po administered for 4 days relative to control", "assay_type": "functional", "details": "dose 6.25-150 mg/kg, time 4 day"}, "GEO [13]": {"system": "GEO", "assay": "Antitumor activity against human GEO cells xenografted in nude mouse assessed as tumor growth inhibition at 25 mg/kg, po administered for 3 days in presence of cetuximab at 0.25 mg/kg relative to control", "assay_type": "functional", "details": "72 h, time 3 day, read-out: TGI"}, "GEO [14]": {"system": "GEO", "assay": "Antitumor activity against human GEO cells xenografted in nude mouse assessed as tumor growth inhibition at 6.25 mg/kg, po administered for 3 days in presence of cetuximab at 0.25 mg/kg relative to control", "assay_type": "functional", "details": "72 h, time 3 day, read-out: TGI"}, "GEO [15]": {"system": "GEO", "assay": "Antitumor activity against human GEO cells xenografted in nude mouse assessed as tumor growth inhibition at 12.5 mg/kg, po administered for 3 days in presence of cetuximab at 0.125 mg/kg relative to control", "assay_type": "functional", "details": "72 h, time 3 day, read-out: TGI"}, "GEO [16]": {"system": "GEO", "assay": "Antitumor activity against human GEO cells xenografted in nude mouse assessed as tumor growth delay time at 12.5 mg/kg, po administered for 17 days relative to control", "assay_type": "functional", "details": "time 17 day"}, "GEO [17]": {"system": "GEO", "assay": "Antitumor activity against human GEO cells xenografted in nude mouse assessed as tumor growth delay time at 12.5 mg/kg, po administered for 3 days in presence of cetuximab at 0.125 mg/kg relative to control", "assay_type": "functional", "details": "time 3 day"}, "[18]": {"assay": "Toxicity in nude mouse xenografted with human GEO cells assessed as body weight loss at 12.5 mg/kg, po administered for 17 days", "assay_type": "organism-based", "details": "in vivo, 408 h, time 17 day"}, "[19]": {"assay": "Toxicity in nude mouse xenografted with human GEO cells assessed as body weight loss at 25 mg/kg, po administered for 3 days in presence of cetuximab at 0.25 mg/kg relative to control", "assay_type": "organism-based", "details": "in vivo, 72 h, time 3 day"}, "[20]": {"assay": "Toxicity in nude mouse xenografted with human GEO cells assessed as body weight loss at 6.25 mg/kg, po administered for 3 days in presence of cetuximab at 0.125 mg/kg relative to control", "assay_type": "organism-based", "details": "in vivo, 72 h, time 3 day"}, "[21]": {"assay": "Toxicity in nude mouse xenografted with human GEO cells assessed as mortality at 25 mg/kg, po administered for 17 days relative to control", "assay_type": "organism-based", "details": "in vivo, time 17 day"}, "[22]": {"assay": "Toxicity in nude mouse xenografted with human GEO cells assessed as mortality at 12.5 mg/kg, po administered for 17 days relative to control", "assay_type": "organism-based", "details": "in vivo, time 17 day"}, "[23]": {"assay": "Toxicity in nude mouse xenografted with human GEO cells assessed as mortality at 25 mg/kg, po administered for 3 days in presence of cetuximab at 0.25 mg/kg relative to control", "assay_type": "organism-based", "details": "in vivo, time 3 day"}, "[24]": {"assay": "Toxicity in nude mouse xenografted with human GEO cells assessed as mortality at 12.5 mg/kg, po administered for 3 days in presence of cetuximab at 0.125 mg/kg relative to control", "assay_type": "organism-based", "details": "in vivo, time 3 day"}}, "note": "Calls of active or inactive are those of the source. The calls are words filed in the database; no cut-off is given here.", "data": [{"smiles": "C[C@@]1(C(=O)Nc2ccc(F)nc2)CCCN1c1nc(Nc2cc(C3CC3)n[nH]2)c2cccn2n1", "note": "[BMS-754807]", "values": [{"measurement": "IC50", "setting": "[1]", "value": 2530, "unit": "nM"}, {"measurement": "IC50", "setting": "[2]", "value": "> 50000", "unit": "nM"}, {"measurement": "IC50", "setting": "GTL 16 cell line", "value": 200, "unit": "nM"}, {"measurement": "Activity", "setting": "Rh41 [3]", "value": "Active"}, {"measurement": "Activity", "setting": "Rh41 [4]", "value": 2.8, "unit": "%"}, {"measurement": "Activity", "setting": "Rh41 [5]", "value": 2.8, "unit": "%"}, {"measurement": "inhibition", "setting": "IGF-1R-Sal", "value": "Active"}, {"measurement": "Activity", "setting": "Mus musculus [6]", "value": 89, "unit": "mg/dL"}, {"measurement": "Activity", "setting": "Mus musculus [7]", "value": 2, "unit": "ng/mL"}, {"measurement": "Activity", "setting": "Mus musculus [8]", "value": 5.1, "unit": "ng/mL"}, {"measurement": "concentration at 2 h", "setting": "[9]", "value": 7, "unit": "nM"}, {"measurement": "concentration at 2 h", "setting": "[10]", "value": 29, "unit": "nM"}, {"measurement": "TGI", "setting": "[11]", "value": 80, "unit": "%"}, {"measurement": "TGI", "setting": "[12]", "value": 67, "unit": "%"}, {"measurement": "inhibition in vivo at 25 mg/kg", "setting": "GEO [13]", "value": 88, "unit": "%"}, {"measurement": "inhibition in vivo at 6.25 mg/kg", "setting": "GEO [14]", "value": 86, "unit": "%"}, {"measurement": "inhibition in vivo at 12.5 mg/kg", "setting": "GEO [15]", "value": 86, "unit": "%"}, {"measurement": "Time", "setting": "GEO [16]", "value": 4, "unit": "days"}, {"measurement": "Time", "setting": "GEO [17]", "value": 30, "unit": "days"}, {"measurement": "Activity", "setting": "[18]", "value": -0.8, "unit": "g"}, {"measurement": "Activity", "setting": "[19]", "value": 1.5, "unit": "g"}, {"measurement": "Activity", "setting": "[20]", "value": 1.2, "unit": "g"}, {"measurement": "mortality at 408 h", "setting": "[21]", "value": 0, "unit": "%"}, {"measurement": "mortality at 408 h", "setting": "[22]", "value": 0, "unit": "%"}, {"measurement": "mortality at 72 h", "setting": "[23]", "value": 0, "unit": "%"}, {"measurement": "mortality at 72 h", "setting": "[24]", "value": 0, "unit": "%"}]}]}
